Measurements as given in US5916576A, “Method of scavenging free radicals using orange extract” (Amway Corporation, priority 1997, dated 1999).

Assay: DPPH free radical scavenging activity test (percent inhibition, absorbency at 516 nm)
Type: biochemical
Conditions: Table 1; 1% solutions, in the manner of Example 1 (DPPH, 30 minutes at 37° C, 516 nm)
Method: A control solution was prepared by measuring 39.43 mg of 2,2-diphenyl-1-picrylhydrazyl hydrate (DPPH), a known source of free radicals, and diluting it to 1000 ml with ethanol. A control cuvette was charged with 1.75 ml of the control and 1.75 ml of ethanol. A blank cuvette was charged with 3.5 ml of ethanol. The cuvettes were placed in an oven for 30 minutes at 37° C. The absorbency was measured at 516 nm using a UV/vis spectrophotometer by placing the blank cuvette into the reference slot and the control cuvette into the sample slot.
An orange extract was prepared according to the method described above. A test cuvette was charged with 1.75 ml of the control solution and 1.75 ml of a 1% solution of orange extract. A reference cuvette was charged with 1.75 ml of the orange extract and 1.75 ml of ethanol. The cuvettes were placed in an oven for 30 minutes at 37° C. The absorbency was measured in the manner described above with the test cuvette placed in the sample slot and the reference cuvette placed in the reference slot.
The free radical scavenging activity was calculated as a percentage of inhibition of the generation of the free radicals using the following formula:
Percent Inhibition=100×[1-(DT/DR)]
DT is the measured absorbance of the test cuvette with respect to the reference cuvette and DR is the measured absorbance of the control cuvette with respect to the blank cuvette. […]

| Compound | % INHIBITION |
| --- | --- |
| CC(=O)Oc1c(C)c(C)c2c(c1C)CCC(C)(CCC[C@H](C)CCC[C@H](C)CCCC(C)C)O2 (some centres unmarked) [Tocopheryl Acetate, tocopheryl acetate] | 67% |
| O=c1oc2cc(O)ccc2s1 [Tioxolone, tioxolone] | 50% |
